Data: US7659299B2, “Compounds inhibiting the binding of sap for treating osteoarthritis” (Pentraxin Therapeutics Limited, priority 2003, dated 2010)
Several values for one entry are separate records, joined by “and”; a condition that tells them apart may be missing. Equal values may be shown once.

Key:
[1] = biological target: T1, SAP (Homo sapiens, UniProt P02743); experiment: Inhibition of binding of 125I radiolabelled SAP to Neisseria meningitidis immobilized in microtitre plates; parameters: 5 μl of radiolabelled SAP in TN; from tissue; settings: read-out: Percent inhibition of binding of radiolabelled SAP to immobilized Neisseria meningitidis
T1 sequence (P02743 20-223): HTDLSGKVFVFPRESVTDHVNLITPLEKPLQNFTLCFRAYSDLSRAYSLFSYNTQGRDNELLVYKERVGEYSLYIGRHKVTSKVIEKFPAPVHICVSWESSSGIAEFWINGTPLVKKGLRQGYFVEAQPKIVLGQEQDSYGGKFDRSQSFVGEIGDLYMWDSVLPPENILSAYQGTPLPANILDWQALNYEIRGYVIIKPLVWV

[2] = biological target: T1, SAP; experiment: Inhibition of binding of 125I radiolabelled SAP to native long chromatin immobilized in microtitre plates; parameters: 5 μl of radiolabelled SAP in TN; from tissue; settings: read-out: Percent inhibition of binding of radiolabelled SAP to immobilized native long chromatin
[3] = biological target: T1, SAP; experiment: Isothermal calorimetry: dissociation constants between SAP and compounds; assay type: binding; settings: replicate measurements, read-out: Kd in micromoles per liter (replicate measurements)
Source text: Surface plasmon resonance (SPR) is a low throughput but powerfully informative method to identify compounds that are bound by, or themselves bind to SAP, either in a calcium dependent fashion or independently of calcium, for the purposes of the present invention. For example, low molecular weight compounds that inhibit binding of SAP to its macromolecular ligands, including target ligands relevant to the present invention, can be detected by their effect on the signal generated by fluid phase SAP binding to ligand immobilised on the solid phase (Example A). Furthermore, when SAP itself is immobilised on the solid phase in an SPR instrument, the interaction with it of test molecules provided in the fluid phase generates a signal that can be detected and quantified. Purified SAP immobilized within an SPR instrument gives a quantifiable signal when it is exposed to another molecule that forms a complex with the SAP, and this is distinct from the absence of such a signal if no complex is formed. […] Another low throughput but powerful direct method is isothermal calorimetry that measures the heat of interaction in solution between SAP and test compounds according to the present invention. The binding affinity can be measured precisely as a guide to potential efficacy. Typical results by this method for the dissociation constants, Kd, between SAP and various compounds are as follows: […]

[4] = biological target: T1, SAP; experiment: Inhibition of binding of 125I radiolabelled SAP to influenza virus immobilized in microtitre plates; parameters: 5 μl of radiolabelled SAP in TN; from tissue; settings: read-out: Percent inhibition of binding of radiolabelled SAP to immobilized influenza virus

O=C(O)[C@H]1CCCN1C(=O)CCCCC(=O)N1CCC[C@@H]1C(=O)O [Ro-63-8695, (R)-1-[6-[(R)-2-Carboxy-pyrrolidin-1-yl]-6-oxo-hexanoyl]pyrrolidine-2-carboxylic acid]
inhibition at 0.2 µM ([1]; compound 200 nM): 5%
inhibition at 2 µM ([1]; compound 2 μM): 61%
inhibition at 20 µM ([1]; compound 20 μM): 74%
inhibition at 200 µM ([1]; compound 200 μM): 79%
inhibition at 2000 µM ([1]; compound 2 mM): 100%
inhibition at 0.2 µM ([2]; compound 200 nM): 1%
inhibition at 2 µM ([2]; compound 2 μM): 29%
inhibition at 20 µM ([2]; compound 20 μM): 69%
inhibition at 200 µM ([2]; compound 200 μM): 87%
inhibition at 2000 µM ([2]; compound 2 mM): 93%
Kd [3]: 13.9 nM and 5.9 nM and 6.5 nM and 8.8 nM
inhibition at 0.2 µM ([4]; compound 200 nM): 36%
inhibition at 2 µM ([4]; compound 2 μM): 81%
inhibition at 20 µM ([4]; compound 20 μM): 90%
inhibition at 200 µM ([4]; compound 200 μM): 96%
inhibition at 2000 µM ([4]; compound 2 mM): 98%
